Columns and labels:
[1] = molecular target: T1, Xanthine dehydrogenase/oxidase (Bos taurus, UniProt P80457); assay: Inhibition of bovine milk xanthine oxidase using xanthine as substrate preincubated for 15 mins followed by substrate addition measured after 30 mins by UV-VIS spectrophotometric analysis; conditions: for inhibition (INH): cattle, 0.5 h
[2] = molecular target: T1, Xanthine dehydrogenase/oxidase; assay: Potency index, ratio of IC50 for allopurinol to IC50 for test compound for inhibition of bovine milk xanthine oxidase using xanthine as substrate preincubated for 15 mins followed by substrate addition measured after 30 mins by UV-VIS spectrophotometric analysis; conditions: cattle, 0.5 h

T1 sequence (P80457 whole entry): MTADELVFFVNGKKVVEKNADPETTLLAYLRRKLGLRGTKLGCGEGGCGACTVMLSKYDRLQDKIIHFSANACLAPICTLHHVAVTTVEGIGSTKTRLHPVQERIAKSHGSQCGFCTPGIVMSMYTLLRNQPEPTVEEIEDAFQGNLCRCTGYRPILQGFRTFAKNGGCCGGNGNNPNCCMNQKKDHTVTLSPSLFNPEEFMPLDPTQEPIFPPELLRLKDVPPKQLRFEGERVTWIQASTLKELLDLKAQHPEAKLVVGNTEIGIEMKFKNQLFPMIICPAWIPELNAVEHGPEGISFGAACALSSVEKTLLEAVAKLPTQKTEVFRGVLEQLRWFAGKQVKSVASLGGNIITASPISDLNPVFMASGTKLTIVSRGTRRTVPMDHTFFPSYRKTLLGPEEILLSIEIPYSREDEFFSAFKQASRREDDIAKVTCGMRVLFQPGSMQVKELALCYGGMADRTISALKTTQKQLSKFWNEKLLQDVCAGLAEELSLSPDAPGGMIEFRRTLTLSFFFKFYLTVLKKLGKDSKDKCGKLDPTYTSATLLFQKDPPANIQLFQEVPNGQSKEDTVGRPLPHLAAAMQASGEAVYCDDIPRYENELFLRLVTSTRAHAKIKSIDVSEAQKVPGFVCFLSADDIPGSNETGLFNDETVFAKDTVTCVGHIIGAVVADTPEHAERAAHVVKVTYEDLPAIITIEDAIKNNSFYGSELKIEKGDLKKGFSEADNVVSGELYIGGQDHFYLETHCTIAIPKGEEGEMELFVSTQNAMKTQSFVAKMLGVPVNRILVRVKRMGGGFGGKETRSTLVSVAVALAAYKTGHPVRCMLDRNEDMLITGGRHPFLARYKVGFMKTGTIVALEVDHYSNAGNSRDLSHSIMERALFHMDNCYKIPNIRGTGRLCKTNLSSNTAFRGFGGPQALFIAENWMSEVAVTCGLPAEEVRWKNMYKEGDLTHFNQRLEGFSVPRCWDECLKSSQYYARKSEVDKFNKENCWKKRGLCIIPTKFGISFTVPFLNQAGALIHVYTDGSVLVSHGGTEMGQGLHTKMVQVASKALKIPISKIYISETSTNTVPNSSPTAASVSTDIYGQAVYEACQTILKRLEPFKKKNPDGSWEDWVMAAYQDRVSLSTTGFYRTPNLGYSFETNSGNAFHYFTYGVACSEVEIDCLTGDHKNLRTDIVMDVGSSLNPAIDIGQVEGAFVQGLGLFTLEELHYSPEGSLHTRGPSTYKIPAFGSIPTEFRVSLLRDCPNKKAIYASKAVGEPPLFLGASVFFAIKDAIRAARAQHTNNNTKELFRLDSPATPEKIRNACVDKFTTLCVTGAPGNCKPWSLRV

IC50 [1]	inhibition (INH) [1]	Compound	Ratio IC50 [2]
0.22 µM	Dose-dependent effect	COc1ccc(-c2oc3cc(O)c(OC)c(O)c3c(=O)c2OC)cc1 [SANTIN]	
0.004 µM	Dose-dependent effect	COc1c(-c2ccc(O)cc2)oc2cc(O)cc(O)c2c1=O [ISOKAEMPFERIDE]	63
9.79 µM	Dose-dependent effect	COc1ccc(-c2oc3cc(OC)cc(O)c3c(=O)c2OC)cc1	
0.05 µM	Dose-dependent effect	COc1c(O)cc2oc(-c3ccc(O)cc3)c(OC)c(=O)c2c1O [3,6-DIMETHOXY KAEMPFEROL]	5
0.09 µM	Dose-dependent effect	COc1cc(-c2oc3cc(O)cc(O)c3c(=O)c2OC)cc(O)c1OC	3

Second part, the compound before the results:

Compound	IC50 [1]	inhibition (INH) [1]	Ratio IC50 [2]
COc1cc(-c2oc3cc(O)c(OC)c(O)c3c(=O)c2OC)cc(O)c1OC	6.95 µM	Dose-dependent effect	
COc1cc(O)c2c(=O)c(OC)c(-c3cc(O)c(OC)c(OC)c3)oc2c1	21 µM	Dose-dependent effect	
COc1ccc(-c2oc3cc(OC)c(OC)c(O)c3c(=O)c2OC)cc1	14.9 µM	Dose-dependent effect	
COc1cc(-c2oc3cc(O)c(OC)c(O)c3c(=O)c2OC)cc(OC)c1OC	4.54 µM	Dose-dependent effect	

Source: ChEMBL document CHEMBL4251584, “Xanthine oxidase inhibitory activity of natural and hemisynthetic flavonoids from Gardenia oudiepe (Rubiaceae) in vitro and molecular docking studies” (Eur J Med Chem, 2018)
